Laboratory results: patent US6924311B2, “Methods for affecting various diseases utilizing LXR compounds” (X-Ceptor Therapeutics, Inc., priority 2001, dated 2005)

Experiments:
LXRα = molecular target: T1, LXRα (Homo sapiens, UniProt Q13133); settings: stated as considered, no test described; cited from earlier work
T1 sequence (Q13133 1-447): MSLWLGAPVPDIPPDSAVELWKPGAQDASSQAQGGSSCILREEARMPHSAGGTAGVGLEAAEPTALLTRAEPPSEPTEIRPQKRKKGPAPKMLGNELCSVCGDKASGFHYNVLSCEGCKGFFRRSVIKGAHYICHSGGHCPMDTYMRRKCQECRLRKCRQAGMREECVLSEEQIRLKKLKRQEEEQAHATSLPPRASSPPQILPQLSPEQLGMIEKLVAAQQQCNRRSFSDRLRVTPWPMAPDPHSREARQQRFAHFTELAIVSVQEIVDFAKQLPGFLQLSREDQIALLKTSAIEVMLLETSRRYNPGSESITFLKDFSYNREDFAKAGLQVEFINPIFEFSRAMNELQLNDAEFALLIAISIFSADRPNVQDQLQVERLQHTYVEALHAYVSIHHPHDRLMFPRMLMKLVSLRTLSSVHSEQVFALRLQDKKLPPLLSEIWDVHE

[1] = Plasma triglyceride levels in wildtype and LXR knockout mice after oral dosing; format: in vivo; settings: 10 mg/kg daily oral gavage, 7 days
Source text: (§1) To decipher the physiological roles of LXRα and LXRβ mice, seven different lines of mice encompassing four unique LXR genotypes (LXRα+/+, LXRβ+/+=wildtype; LXRα−/−, LXRβ+/+=LXRα−/−; LXRα+/+, LXRβ−/−=LXRβ−/−; LXRα−/−, LXRβ−/−=LXRαβ−/−) were studied. Genetic knockouts of LXRα( LXRα−/−) were generated in two independent mouse strain backgrounds (C57BL/6 and A129). Genetic knockouts of LXRβ (LXRβ−/−) and the double knockout of LXRα and LXRβ (LXRαβ−/−) were generated in a mixed genetic background (C57BL/6×A129). The three appropriate wildtype (LXRα+/+, LXRβ+/+) mouse lines were used as controls. Mice from each line were treated for seven days with 10 mg compound/kg body weight of the LXR agonist Compound 1: N-(2,2,2-trifluoroethyl)-N-[4-(2,2,2- trifluoro-1-hydroxy-1-trifluoromethylethyl)-phenyl]-benzene sulfonamide. […] Compound 1 was administered by daily oral gavage in a sesame oil/ethanol vehicle via a 1-cc syringe fitted with a 20G disposable feeding needle. Compound was solvated in ethanol (5% final volume) and brought up to final volume with sesame oil (Sigma, St. Louis, Mo.).
To determine the ability of Compound 1 to elevate serum triglycerides non-fasting mice were anesthetized with isofluorane and blood samples were obtained by retro-orbital plexus puncture. Blood samples were collected before the first dose and three hours after dosing on day 1, day 3 and day 7 into heparinized tubes. Samples were centrifuged to obtain plasma and stored at −20° C. Plasma triglyceride levels were determined using a colorimetric enzymatic assay adapted to a 96 well plate format (Infinity Triglyceride Reagent, Sigma, St. Louis, Mo.). Sigma glycerol standards (Sigma, St. Louis, Mo.) were use to generate standard curves. The absorbance of the samples and standards were read using a Multiskan plate reader.

LXRβ = molecular target: T2, LXRβ (Homo sapiens, UniProt P55055); settings: stated as considered, no test described; cited from earlier work
T2 sequence (P55055 1-460): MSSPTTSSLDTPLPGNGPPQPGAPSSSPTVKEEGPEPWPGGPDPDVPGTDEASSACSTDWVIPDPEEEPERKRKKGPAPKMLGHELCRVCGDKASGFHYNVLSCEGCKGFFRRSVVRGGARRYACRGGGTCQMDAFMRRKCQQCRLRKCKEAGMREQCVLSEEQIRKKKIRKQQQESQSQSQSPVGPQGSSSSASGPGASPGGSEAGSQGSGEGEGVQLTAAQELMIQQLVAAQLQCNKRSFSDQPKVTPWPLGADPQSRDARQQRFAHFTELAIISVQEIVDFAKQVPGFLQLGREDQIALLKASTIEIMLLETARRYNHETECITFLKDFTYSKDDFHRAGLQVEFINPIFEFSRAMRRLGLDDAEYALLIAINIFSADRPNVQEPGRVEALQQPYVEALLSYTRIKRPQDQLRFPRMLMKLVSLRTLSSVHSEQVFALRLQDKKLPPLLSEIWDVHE

[2] = Dietary cholesterol absorption, fecal extraction method; format: in vivo, mice; settings: 50 mg/kg daily oral, 7 days
Procedure: Induction of cholesterol efflux pumps such as ABCA1 in the intestine limits the absorption of dietary cholesterol by stimulating the efflux of cholesterol out of intestinal enterocytes and into the intestinal lumen where it is excreted. To examine the effect of LXR pan-agonists on dietary cholesterol absorption, mixed wildtype and LXRαβ−/− mice were treated with vehicle or Compound 1 (50 mg/kg) for seven days prior to the initiation of the cholesterol absorption protocol. Compound 1 was administered by daily oral gavage in a 1% carboxy methyl-cellulose/ethanol vehicle via a 1-cc syringe fitted with a 20G disposable feeding needle. Compound was solvated in ethanol (5% final volume) and brought up to final volume with 1% carboxy methylcellulose. On day seven of the study, animals received a single oral bolus dose of 0.67 μCi [4-^14C]cholesterol (New England Nuclear, Boston, Mass.) and 1.3 μCi [5,6-^3H]sitostanol (ARC, St. Louis Mo.) by gavage in MCT oil (Mead Johnson, Evansville, Ind.). […] Extracted samples were counted on a scintillation counter and then analyzed based upon the following equation. [((^14C/^3H) dosing mixture)−(^14C/^3H) fecal samples)]/((^14C/^3H) dosing mixture). […] This agonist-dependent effect is lost in LXRαβ−/− mice indicating a requirement for LXR activity in mediating this activity.

[3] = tested on: lipoprotein lipase (LPL) mRNA; test: Liver lipoprotein lipase (LPL) mRNA by quantitative PCR in treated mice; format: in vivo; settings: 10 mg/kg daily oral; for LPL mRNA induction: day 7
Source text: as §1

O=S(=O)(c1ccccc1)N(CC(F)(F)F)c1ccc(C(O)(C(F)(F)F)C(F)(F)F)cc1 [Compound 1, N-(2,2,2-trifluoroethyl)-N-[4-(2,2,2-trifluoro-1-hydroxy-1-trifluoromethylethyl)-phenyl]-benzene sulfonamide]
binding and activation of LXRα (LXRα): binds and activates both LXRα and LXRβ with similar potency and efficacy
effect on serum triglyceride levels ([1]; LXRβ−/− mice): no effect on the ability of LXR agonists to elevate triglycerides
effect on serum triglyceride levels ([1]; mice lacking LXRα (LXRα−/−, LXRαβ−/−)): elevates serum triglyceride levels only in mice that have LXRα
effect on serum triglyceride levels ([1]; wildtype mice): elevates serum triglyceride levels
binding and activation of LXRβ (LXRβ): binds and activates both LXRα and LXRβ with similar potency and efficacy
effect on cholesterol absorption ([2]; LXRαβ−/− mice): lost
effect on cholesterol absorption ([2]; mixed wildtype mice): significant decrease in cholesterol absorption
LPL mRNA induction ([3]; LXRα−/− mice (C57BL/6 and A129)): completely blocks the pan-agonist induction of LPL
LPL mRNA induction ([3]; LXRβ−/− mice): little or no effect
fold induction at 10 mg/kg ([3]; Mus musculus, 168 h, wildtype mice, day 7, read-out: LPL mRNA fold induction (+Compound 1/vehicle)): 3 to 9
